US9593136B2 (priority 2011, dated 2017)
In brackets after ≈: the same amount, converted by molar mass. Read-outs that look alike come from different tables or passages of the source.

Experiments:
[1] = system: B. anthracis; test: microbe, parasite or virus in culture; format: cell-based, Bacillus anthracis; details: for MIC: Bacillus anthracis, read-out: MIC B. anthracis
[2] = system: E. faecalis; test: microbe, parasite or virus in culture; format: cell-based; details: for MIC: Enterococcus faecalis, read-out: MIC E. faecalis
[3] = system: Acinetobacter; test: microbe, parasite or virus in culture; format: cell-based; details: for MIC: Acinetobacter, read-out: MIC Acinetobacter
[4] = system: S. pneumonia; test: MIC against S. pneumonia; format: cell-based; details: Table 1
Protocol: (§1) The following compounds have been synthesized and tested for their activities against bacteria (Table 1) and their abilities to inhibit Dxr (Table 2). MIC is determined as described in Yendapally et al. (Journal of Medicinal Chemistry 2008, 51, 1487); and IC50 is determined as described in Henriksson et al. (Journal of Biological Chemistry 2007, 282, 19905).

[5] = system: S. aureus (MSSA); test: microbe, parasite or virus in culture; format: cell-based; details: for MIC: Staphylococcus aureus, MSSA, read-out: MIC S. aureus (MSSA)
[6] = system: MRSA NRS 70; test: microbe, parasite or virus in culture; format: cell-based, S. aureus; details: for MIC: Staphylococcus aureus
[7] = system: Mtb H37Rv (ATCC 27294); test: microbe, parasite or virus in culture; format: cell-based, Mycobacterium tuberculosis; details: for MIC: Mycobacterium tuberculosis
[8] = system: E. coli k12; test: microbe, parasite or virus in culture; format: cell-based; details: for MIC: Escherichia coli, K12, read-out: MIC E. coli k12
[9] = system: E. coli tolc; test: microbe, parasite or virus in culture; format: cell-based; details: for MIC: Escherichia coli, read-out: MIC E. coli tolc
[10] = system: P. aeruginosa; test: MIC against P. aeruginosa; format: cell-based; details: Pseudomonas aeruginosa; Table 1
Protocol: as §1

[11] = system: Klebsiella; test: MIC against Klebsiella; format: cell-based; details: Table 1
Protocol: as §1

[12] = biological target: M. tuberculosis Dxr (Mycobacterium tuberculosis, UniProt P9WNS1); test: biochemical; details: IC50 (μM)
[13] = read-out: Mtb MIC (ug/mL) (7H9)
[14] = read-out: Mtb MIC (ug/mL) (GAST)

Chain of M. tuberculosis Dxr (P9WNS1 whole entry, looked up): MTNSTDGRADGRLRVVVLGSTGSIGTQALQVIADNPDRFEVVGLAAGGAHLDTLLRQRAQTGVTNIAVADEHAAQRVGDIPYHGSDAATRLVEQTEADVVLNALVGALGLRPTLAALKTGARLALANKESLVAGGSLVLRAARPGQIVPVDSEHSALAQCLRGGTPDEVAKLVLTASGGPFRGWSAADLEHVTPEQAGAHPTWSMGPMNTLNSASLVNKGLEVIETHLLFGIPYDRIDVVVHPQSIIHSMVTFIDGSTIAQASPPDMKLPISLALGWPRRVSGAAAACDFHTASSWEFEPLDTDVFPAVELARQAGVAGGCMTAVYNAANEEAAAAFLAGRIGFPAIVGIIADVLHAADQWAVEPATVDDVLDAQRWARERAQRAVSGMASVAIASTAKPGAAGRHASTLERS

SMILES | MIC [1] [µg/mL] | MIC [2] [µg/mL] | MIC [3] [µg/mL] | MIC [4] [µg/mL] | MIC [5] [µg/mL] | MIC ([6]; read-out: MIC MRSA NRS 70) [µg/mL] | MIC ([7]; read-out: MIC H37 Rv) [µg/mL] | MIC ([7]; read-out: Mtb MIC (ug/mL)) [µg/mL] | MIC [8] [µg/mL] | MIC [9] [µg/mL] | MIC [10] [µg/mL] | MIC [11] [µg/mL] | MIC B. anthracis [1] [µg/mL] | MIC E. faecalis [2] [µg/mL] | MIC Acinetobacter [3] [µg/mL] | MIC S. aureus (MSSA) [5] [µg/mL] | MIC S. aureus (MRSA) [6] [µg/mL] | MIC M. tuberculosis (H37Rv) [7] [µg/mL] | MIC E. coli k12 [8] [µg/mL] | MIC E. coli tolc [9] [µg/mL] | further results
CCOP(=O)(CCCN(OCCc1ccccc1)C(C)=O)OCC [GSJ 25] | > 200 | > 200 | > 200 | > 200 | > 200 | > 200 | > 200 | > 200 | > 200 | > 200 | > 200 | > 200 | – | – | – | – | – | – | – | – | –
CCOP(=O)(CCCN(O)C(=O)CCCc1ccccc1)OCC [ERJ 79] | > 200 | > 200 | > 200 | > 200 | 100 (≈ 280 µM) | 50 (≈ 140 µM) | > 200 | – | > 200 | > 200 | > 200 | > 200 | – | – | – | – | – | – | – | – | MIC [7, 13]: 3.12 µg/mL (≈ 8.74 µM); MIC [7, 14]: > 200 µg/mL
CCOP(=O)(CCCN(OCCc1ccc(OC)cc1)C(C)=O)OCC [GSJ 31] | > 200 | > 200 | > 200 | > 200 | 200 (≈ 516 µM) | 50 (≈ 129 µM) | > 200 | > 200 | > 200 | > 200 | > 200 | > 200 | – | – | – | – | – | – | – | – | –
CCOP(=O)(CCCN(OCCCc1ccc(OC)cc1)C(C)=O)OCC [GSJ 30] | > 200 | > 200 | > 200 | > 200 | > 200 | > 200 | > 200 | > 200 | > 200 | > 200 | > 200 | > 200 | – | – | – | – | – | – | – | – | –
CCOP(=O)(CCCN(O)C(=O)c1cccc2ccccc12)OCC [ERJ 93] | 200 (≈ 547 µM) | 200 (≈ 547 µM) | > 200 | > 200 | 100 (≈ 274 µM) | 50 (≈ 137 µM) | > 200 | – | > 200 | > 200 | > 200 | > 200 | – | – | – | – | – | – | – | – | –
CCOP(=O)(CCCN(O)C(=O)c1ccccc1)OCC [ERJ 58] | > 200 | > 200 | > 200 | > 200 | > 200 | > 200 | > 200 | – | > 200 | > 200 | > 200 | > 200 | – | – | – | – | – | – | – | – | MIC [7, 13]: > 500 µg/mL; MIC [7, 14]: 31.2 µg/mL (≈ 99.1 µM)
CCOP(=O)(CCCN(O)C(=O)c1ccc2ccccc2c1)OCC [ERJ 96] | > 200 | > 200 | > 200 | > 200 | > 200 | > 200 | > 200 | – | > 200 | > 200 | > 200 | > 200 | – | – | – | – | – | – | – | – | –
CCOP(=O)(CCCN(OCCCc1ccccc1)C(C)=O)OCC [GSJ 27] | > 200 | > 200 | > 200 | > 200 | > 200 | > 200 | > 200 | > 200 | > 200 | > 200 | > 200 | > 200 | – | – | – | – | – | – | – | – | –
CCOP(=O)(CCCN(O)C(=O)c1ccc(-c2ccccc2)cc1)OCC [ERJ 104] | > 200 | > 200 | > 200 | > 200 | 100 (≈ 255 µM) | 100 (≈ 255 µM) | > 200 | – | > 200 | 100 (≈ 255 µM) | > 200 | > 200 | – | – | – | – | – | – | – | – | –
CC(=O)N(O)CCCP(=O)(OCOC(=O)c1ccccc1)OCOC(=O)c1ccccc1 [Compound 26] | – | – | – | – | – | – | – | – | – | – | – | – | 100 (≈ 215 µM) | >200 | 200 (≈ 430 µM) | >200 | >200 | 25 to 100 | >200 | 50 (≈ 107 µM) | antitubercular activity (in words) [7]: better antitubercular activity
CC(=O)N(O)CCCP(=O)(OC(C)OC(=O)OC(C)(C)C)OC(C)OC(=O)OC(C)(C)C (stereo not drawn) [Compound 25] | – | – | – | – | – | – | – | – | – | – | – | – | 200 (≈ 412 µM) | >200 | >200 | 100 (≈ 206 µM) | 50 (≈ 103 µM) | 400 (≈ 824 µM) | >200 | >200 | –
CC(=O)N(O)CCCP(=O)(OCOC(=O)C(C)(C)C)OCOC(=O)C(C)(C)C [Compound 24] | – | – | – | – | – | – | – | – | – | – | – | – | 200 (≈ 470 µM) | >200 | >200 | 100 (≈ 235 µM) | 50 (≈ 118 µM) | 50 to 100 | >200 | 100 (≈ 235 µM) | antitubercular activity (in words) [7]: better antitubercular activity
CC(=O)N(O)CCCP(=O)(OCC(=O)OC(C)(C)C)OCC(=O)OC(C)(C)C [Compound 23] | – | – | – | – | – | – | – | – | – | – | – | – | >200 | >200 | >200 | 100 (≈ 235 µM) | 25 (≈ 58.8 µM) | 400 (≈ 940 µM) | >200 | >200 | –
CCOP(=O)(CCCN(O)C=O)OCC [Compound 10, Diethyl fosmidomycin] | – | – | – | – | – | – | – | – | – | – | – | – | >200 | >200 | >200 | >200 | >200 | 400 (≈ 1670 µM) | >200 | >200 | –
CCOC(=O)OC(C)OP(=O)(CCCN(O)C(C)=O)OC(C)OC(=O)OCC (stereo not drawn) [Compound 22] | – | – | – | – | – | – | – | – | – | – | – | – | >200 | >200 | >200 | >200 | >200 | 400 (≈ 932 µM) | >200 | 200 (≈ 466 µM) | –
CC(=O)N(O)CCCP(=O)(O)O [FR900098, reference compound] | 50 (≈ 254 µM) | > 200 | 50 (≈ 254 µM) | – | > 200 | – | – | > 200 | 200 (≈ 1010 µM) | 12.5 (≈ 63.4 µM) | – | – | – | – | – | – | – | – | – | – | IC50 [12]: 2 µM; MIC ([6]; read-out: MIC S. aureus (MRSA)): 50 µg/mL (≈ 254 µM); antitubercular activity (in words) [7]: inactive; MIC ([7]; read-out: MIC M. tuberculosis (H37Rv)): > 500 µg/mL
